Where two headings read alike, the source gives them in different places.

Data set [1] has as its system skin of each patient. The conditions noted are these: human, in vivo, 48 h.
Data set [2] has as its system skin of each patient. The data set is described as follows: skin patch testing with the first 28 common test materials (Example 2). The conditions noted are these: of 15 symptomatic patients (IBS or IBS-like symptoms).

In the case of `CCCCCCCCCCCCOC(=O)c1cc(O)c(O)c(O)c1` [dodecyl gallate], the “patients with a positive patch test” value with skin of each patient [1] turned out to be 1.
In the case of `C=C(C)[C@H]1CC=C(C)CC1` [dipentene], the “patients with a positive patch test” value in the data set with skin of each patient [2] turned out to be 1.
On the same count and under the same terms, the result for `O=C(OOC(=O)c1ccccc1)c1ccccc1` [benzoyl peroxide] reads 1.

The record behind these values is patent publication US20250235148A1, “IBS RELATED TESTING AND TREATMENT” (IBS-80, LLC, priority 2021, published 2025).
